Counter-ions that a name gives are not always drawn.
How the values were obtained:
mouse TAAR1 = molecular target: T1, mouse TAAR1 (Mus musculus, UniProt Q923Y8); experiment: Radioligand binding assay on mouse TAAR1; conditions: mouse TAAR1, HEK-293 membranes, first value of cell mouse/rat
T1 construct: expressed in transfected cells; membrane preparation
Description: (§1) For the construction of expression plasmids the coding sequences of human, rat and mouse TAAR 1 were amplified from genomic DNA essentially as described by Lindemann et al.. The Expand High Fidelity PCR System (Roche Diagnostics) was used with 1.5 mM Mg^2+ and purified PCR products were cloned into pCR2.1-TOPO cloning vector (Invitrogen) following the instructions of the manufacturer. PCR products were subcloned into the pIRESneo2 vector (BD Clontech, Palo Alto, Calif.), and expression vectors were sequence verified before introduction in cell lines.
(§2) HEK293 cells (ATCC # CRL-1573) were cultured essentially as described by Lindemann et al. (2005). For the generation of stably transfected cell lines HEK293 cells were transfected with the pIRESneo2 expression plasmids containing the TAAR coding sequences (described above) with Lipofectamine 2000 (Invitrogen) according to the instructions of the manufacturer, and 24 hrs post transfection the culture medium was supplemented with 1 mg/ml G418 (Sigma, Buchs, Switzerland). After a culture period of about 10 d clones were isolated, expanded and tested for responsiveness to trace amines (all compounds purchased from Sigma) with the cAMP Biotrak Enzyme immunoassay (EIA) System (Amersham) following the non-acetylation EIA procedure provided by the manufacturer.
Radioligand Binding Assay on Mouse TAAR1
(§3) Membrane Preparation and Radioligand Binding.
HEK-293 cells stably expressing mouse TAAR1 were maintained at 37° C. and 5% CO2 in DMEM high glucose medium, containing fetal calf serum (10%, heat inactivated for 30 min at 56° C.), penicillin/streptomycin (1%), and 375 μg/ml geneticin (Gibco). Cells were released from culture flasks using trypsin/EDTA, harvested, washed twice with ice-cold PBS (without Ca^2+ and Mg^2+), pelleted at 1,000 rpm for 5 min at 4° C., frozen and stored at −80° C. Frozen pellets were suspended in 20 ml HEPES-NaOH (20 mM, pH 7.4) containing 10 mM EDTA and homogenized with a Polytron (PT 6000, Kinematica) at 14,000 rpm for 20 s. The homogenate was centrifuged at 48,000×g for 30 min at 4° C. Subsequently, the supernatant was removed and discarded, and the pellet resuspended in 20 ml HEPES-NaOH (20 mM, pH 7.4) containing 0.1 mM EDTA using the Polytron (20 s at 14,000 rpm). This procedure was repeated and the final pellet resuspended in HEPES-NaOH containing 0.1 mM EDTA and homogenized using the Polytron. Typically, aliquots of 2 ml membrane portions were stored at −80° C. With each new membrane batch the dissociation constant (Kd) was determined via a saturation curve. The TAAR1 radioligand ^3[H]—(S)-4-[(ethyl-phenyl-amino)-methyl]-4,5-dihydro-oxazol-2-ylamine (described in WO 2008/098857) was used at a concentration equal to the calculated Kd value, that was usually around 0.7 nM, resulting in the binding of approximately 0.5% of the radioligand and a specific binding representing approximately 70% of the total binding. Nonspecific binding was defined as the amount of ^3[H]—(S)-4-[(ethyl-phenyl-amino)-methyl]-4,5-dihydro-oxazol-2-ylamine bound in the presence of 10 μM unlabeled ligand. All compounds were tested at a broad range of concentrations (10 pM to 10 μM) in duplicates. The test compounds (20 μl/well) were transferred into a 96 deep well plate (TreffLab), and 180 μl of HEPES-NaOH (20 mM, pH 7.4) containing MgCl2 (10 mM) and CaCl2 (2 mM) (binding buffer), 300 μl of the radioligand ^3[H]—(S)-4-[(ethyl-phenyl-amino)-methyl]-4,5-dihydro-oxazol-2-ylamine at a concentration of 3.3×Kd in nM and 500 μl of the membranes (resuspended at 60 μg protein per ml) added. The 96 deep well plates were incubated for 1 hr at 4° C. Incubations were terminated by rapid filtration through Unifilter-96 plates (Packard Instrument Company) and glass filters GF/C (Perkin Elmer) presoaked for 1 hr in polyethylenimine (0.3%) and washed 3 times with 1 ml of cold binding buffer. […]

rat TAAR1 = molecular target: T2, rat TAAR1 (Rattus norvegicus, UniProt Q923Y9); experiment: Radioligand binding assay on rat TAAR1; conditions: rat TAAR1, HEK-293 membranes, second value of cell mouse/rat
T2 construct: expressed in transfected cells; membrane preparation
Description: as §1, §2
Radioligand Binding Assay on Rat TAAR1
as §3
HEK-293 cells stably expressing rat TAAR1 were maintained at 37° C. and 5% CO2 in DMEM high glucose medium, containing fetal calf serum (10%, heat inactivated for 30 min at 56° C.), penicillin/streptomycin (1%), and 375 μg/ml geneticin (Gibco). Cells were released from culture flasks using trypsin/EDTA, harvested, washed twice with ice-cold PBS (without Ca^2+ and Mg^2+), pelleted at 1,000 rpm for 5 min at 4° C., frozen and stored at −80° C. Frozen pellets were suspended in 20 ml HEPES-NaOH (20 mM, pH 7.4) containing 10 mM EDTA and homogenized with a Polytron (PT 6000, Kinematica) at 14,000 rpm for 20 s. The homogenate was centrifuged at 48,000×g for 30 min at 4° C. Subsequently, the supernatant was removed and discarded, and the pellet resuspended in 20 ml HEPES-NaOH (20 mM, pH 7.4) containing 0.1 mM EDTA using the Polytron (20 s at 14,000 rpm). This procedure was repeated and the final pellet resuspended in HEPES-NaOH containing 0.1 mM EDTA and homogenized using the Polytron. Typically, aliquots of 2 ml membrane portions were stored at −80° C. With each new membrane batch the dissociation constant (Kd) was determined via a saturation curve. […] Nonspecific binding was defined as the amount of ^3[H]—(S)-4-[(ethyl-phenyl-amino)-methyl]-4,5-dihydro-oxazol-2-ylamine bound in the presence of 10 μM unlabeled ligand. All compounds were tested at a broad range of concentrations (10 pM to 10 μM) in duplicates. The test compounds (20 μl/well) were transferred into a 96 deep well plate (TreffLab), and 180 μl of HEPES-NaOH (20 mM, pH 7.4) containing MgCl2 (10 mM) and CaCl2 (2 mM) (binding buffer), 300 μl of the radioligand ^3[H]—(S)-4-[(ethyl-phenyl-amino)-methyl]-4,5-dihydro-oxazol-2-ylamine at a concentration of 3.3×Kd in nM and 500 μl of the membranes (resuspended at 50 μg protein per ml) added. The 96 deep well plates were incubated for 1 hr at 4° C. Incubations were terminated by rapid filtration through Unifilter-96 plates (Packard Instrument Company) and glass filters GF/C (Perkin Elmer) presoaked for 1 hr in polyethylenimine (0.3%) and washed 3 times with 1 ml of cold binding buffer. After addition of 45 μl of Microscint 40 (PerkinElmer) the Unifilter-96 plate was sealed and after 1 hr the […] counted using a TopCount Microplate Scintillation Counter (Packard Instrument Company).

T2 sequence (Q923Y9 whole entry): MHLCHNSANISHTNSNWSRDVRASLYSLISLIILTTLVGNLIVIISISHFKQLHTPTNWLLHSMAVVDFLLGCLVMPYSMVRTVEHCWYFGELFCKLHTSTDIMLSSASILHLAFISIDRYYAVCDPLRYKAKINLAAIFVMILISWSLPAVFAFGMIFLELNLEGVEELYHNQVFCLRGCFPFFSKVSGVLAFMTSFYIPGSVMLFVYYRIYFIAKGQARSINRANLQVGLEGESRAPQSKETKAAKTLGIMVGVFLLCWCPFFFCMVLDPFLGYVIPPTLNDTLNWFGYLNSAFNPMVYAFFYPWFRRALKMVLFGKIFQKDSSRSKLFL
T1 sequence (Q923Y8 whole entry): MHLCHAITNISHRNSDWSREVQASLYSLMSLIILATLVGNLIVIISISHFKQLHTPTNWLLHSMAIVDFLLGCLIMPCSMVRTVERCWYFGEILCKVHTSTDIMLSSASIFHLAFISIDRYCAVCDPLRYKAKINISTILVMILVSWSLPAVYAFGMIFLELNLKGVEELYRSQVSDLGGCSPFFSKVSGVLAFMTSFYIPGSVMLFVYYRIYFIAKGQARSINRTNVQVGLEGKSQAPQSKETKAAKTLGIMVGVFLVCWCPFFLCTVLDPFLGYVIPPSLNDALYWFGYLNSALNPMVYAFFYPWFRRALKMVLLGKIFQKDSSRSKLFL

Ki (mouse TAAR1) [µM]	Ki (rat TAAR1) [µM]	SMILES
0.0115	0.009	O=C(Nc1ccc([C@@H]2CNCCO2)c(F)c1)c1cnc(C(F)(F)F)cn1 [Example 1, (R)—N-(3-Fluoro-4-(morpholin-2-yl)phenyl)-5-(trifluoromethyl)pyrazine-2-carboxamide hydrochloride]
0.0184	0.0186	N#Cc1cc(NC(=O)c2cnc(C(F)(F)F)cn2)ccc1[C@@H]1CNCCO1 [Example 2, (R)—N-(3-Cyano-4-(morpholin-2-yl)phenyl)-5-(trifluoromethyl)pyrazine-2-carboxamide hydrochloride]
0.0204	1.09	N#Cc1cc(NC(=O)c2cnc(C(F)(F)F)cn2)ccc1[C@H]1CNCCO1 [Example 3, (S)—N-(3-Cyano-4-(morpholin-2-yl)phenyl)-5-(trifluoromethyl)pyrazine-2-carboxamide hydrochloride]
0.0833	0.0344	N#Cc1cc(NC(=O)c2cncc(C(F)(F)F)n2)ccc1[C@@H]1CNCCO1 [Example 4, (R)—N-(3-Cyano-4-(morpholin-2-yl)phenyl)-6-(trifluoromethyl)pyrazine-2-carboxamide hydrochloride]
0.038	0.054	O=C(Nc1ccc([C@H]2CNCCO2)c(F)c1)c1cncc(C(F)(F)F)n1 [Example 5, (S)—N-(3-Fluoro-4-(morpholin-2-yl)phenyl)-6-(trifluoromethyl)pyrazine-2-carboxamide hydrochloride]
0.0328	0.0197	O=C(Nc1ccc([C@@H]2CNCCO2)c(F)c1)c1cncc(C(F)(F)F)n1 [Example 6, (R)—N-(3-Fluoro-4-(morpholin-2-yl)phenyl)-6-(trifluoromethyl)pyrazine-2-carboxamide hydrochloride]
0.147	0.068	COc1cncc(C(=O)Nc2ccc([C@@H]3CNCCO3)c(F)c2)n1 [Example 7, (R)—N-(3-Fluoro-4-(morpholin-2-yl)phenyl)-6-methoxypyrazine-2-carboxamide hydrochloride]
0.0107	0.0476	COc1cnc(C(=O)Nc2ccc([C@@H]3CNCCO3)c(F)c2)cn1 [Example 8, (R)—N-(3-Fluoro-4-(morpholin-2-yl)phenyl)-5-methoxypyrazine-2-carboxamide hydrochloride]
0.0314	0.247	COc1cncc(C(=O)Nc2ccc([C@H]3CNCCO3)c(F)c2)n1 [Example 9, (S)—N-(3-Fluoro-4-(morpholin-2-yl)phenyl)-6-methoxypyrazine-2-carboxamide hydrochloride]
0.0136	0.54	COc1cnc(C(=O)Nc2ccc([C@H]3CNCCO3)c(F)c2)cn1 [Example 10, (S)—N-(3-Fluoro-4-(morpholin-2-yl)phenyl)-5-methoxypyrazine-2-carboxamide hydrochloride]
0.0046	0.0119	O=C(Nc1ccc([C@H]2CNCCO2)c(F)c1)c1cnc(OCC2CCC2)cn1 [Example 11, (S)-5-(Cyclobutylmethoxy)-N-(3-fluoro-4-(morpholin-2-yl)phenyl)pyrazine-2-carboxamide hydrochloride]
0.0045	0.04	O=C(Nc1ccc([C@H]2CNCCO2)c(F)c1)c1cnc(OCC2CC2)cn1 [Example 12, (S)-5-(Cyclopropylmethoxy)-N-(3-fluoro-4-(morpholin-2-yl)phenyl)pyrazine-2-carboxamide hydrochloride]
0.0041	0.11	CCOc1cnc(C(=O)Nc2ccc([C@H]3CNCCO3)c(F)c2)cn1 [Example 13, (S)-5-Ethoxy-N-(3-fluoro-4-(morpholin-2-yl)phenyl)pyrazine-2-carboxamide hydrochloride]
0.0028	0.0222	O=C(Nc1ccc([C@H]2CNCCO2)c(F)c1)c1cnc2ccccc2n1 [Example 14, (S)—N-(3-Fluoro-4-(morpholin-2-yl)phenyl)quinoxaline-2-carboxamide hydrochloride]
0.0068	0.0131	Cc1ccc2ncc(C(=O)Nc3ccc([C@H]4CNCCO4)c(F)c3)nc2c1 [Example 15, 7-Methyl-quinoxaline-2-carboxylic acid ((S)-3-fluoro-4-morpholin-2-yl-phenyl)-amide hydrochloride]
0.0193	0.191	O=C(Nc1ccc([C@H]2CNCCO2)c(F)c1)c1cnc(N2CC(F)(F)C2)cn1 [Example 16, 5-(3,3-Difluoro-azetidin-1-yl)-pyrazine-2-carboxylic acid ((S)-3-fluoro-4-morpholin-2-yl-phenyl)-amide hydrochloride]
0.0072	0.0076	O=C(Nc1ccc([C@@H]2CNCCO2)c(F)c1)c1cnc(C2CC2)cn1 [Example 17, 5-Cyclopropyl-pyrazine-2-carboxylic acid ((R)-3-fluoro-4-morpholin-2-yl-phenyl)-amide hydrochloride]
0.0036	0.0625	O=C(Nc1ccc([C@H]2CNCCO2)c(F)c1)c1cnc(C2CC2)cn1 [Example 18, 5-Cyclopropyl-pyrazine-2-carboxylic acid ((S)-3-fluoro-4-morpholin-2-yl-phenyl)-amide hydrochloride]
0.0061	0.235	O=C(Nc1ccc([C@H]2CNCCO2)cc1F)c1cnc(C2CC2)cn1 [Example 19, (S)-5-Cyclopropyl-N-(2-fluoro-4-(morpholin-2-yl)phenyl)pyrazine-2-carboxamide]
0.0099	0.0708	O=C(Nc1ccc([C@@H]2CNCCO2)cc1F)c1cnc(C2CC2)cn1 [Example 20, (R)-5-Cyclopropyl-N-(2-fluoro-4-(morpholin-2-yl)phenyl)pyrazine-2-carboxamide]

Source: patent US20160272626A1, “PYRAZINE DERIVATIVES” (HOFFMANN-LA ROCHE INC., priority 2012, published 2016)
